US20070191336A1 (priority 2003, published 2007)

Molecular target: T1, phospho p-38 alpha kinase (Homo sapiens, UniProt Q16539)
T1 construct: purchased Panvera
Assay: P-38 alpha kinase assay (spectrophotometric, pyruvate kinase/lactate dehydrogenase coupled)
Type: biochemical
Details: for inhibition at 10 µM / inhibition at 2 µM / inhibition at 0.1 µM / inhibition at 1 µM: read-out: % Inhibition @ concentration, Table 3; for IC50: Table 3, rates from […] to 2 h time frame
Method: In this assay, the oxidation of NADH was continuously measured spectrophometrically. […] The reaction was initiated by adding ATP. The absorption at 340 nm was monitored continuously for up to 4 hours at 30° C. on Polarstar Optima plate reader (BMG). The kinase activity (reaction rate) was calculated from the slope at the time frame from 1.5 h to 2 h.
For inhibition determinations, test compounds were incubated with the reaction mixture for ˜5 min before adding ATP to start the reaction. […] IC50 values were calculated from a series of % inhibition values determined at a range of concentrations of each inhibitor using Prism to process the data and fit inhibition curves. Generally, the rates obtained at the time frame of 1.5 h to 2 h were used for these calculations.

T1 sequence (Q16539 whole entry): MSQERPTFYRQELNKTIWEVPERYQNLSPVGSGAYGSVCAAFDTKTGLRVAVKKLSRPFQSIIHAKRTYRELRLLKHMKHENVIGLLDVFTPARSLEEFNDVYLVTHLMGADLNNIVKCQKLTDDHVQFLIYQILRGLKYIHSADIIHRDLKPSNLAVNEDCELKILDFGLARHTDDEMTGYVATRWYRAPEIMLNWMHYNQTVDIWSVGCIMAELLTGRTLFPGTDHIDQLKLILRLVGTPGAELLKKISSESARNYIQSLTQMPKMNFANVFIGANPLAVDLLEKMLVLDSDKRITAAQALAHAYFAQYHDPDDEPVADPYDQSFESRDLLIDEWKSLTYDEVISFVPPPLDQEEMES

Row | IC50 | SMILES | further results
1 | – | COc1cccc(-n2nc(C)cc2NC(=O)Nc2cccc(Br)c2)c1 [Example 337, 1-(3-bromophenyl)-3-(1-(3-methoxyphenyl)-3-methyl-1H-pyrazol-5-yl)urea] | inhibition at 10 µM: 8%
2 | – | COc1cccc(-n2nc(C)cc2NC(=O)Nc2cccc(C(F)(F)F)c2)c1 [Example 338, 1-(1-(3-methoxyphenyl)-3-methyl-1H-pyrazol-5-yl)-3-(3-(trifluoromethyl)phenyl)urea] | inhibition at 2 µM: 7%
3 | – | COc1cccc(NC(=O)Nc2cc(C)nn2-c2cccc(OC)c2)c1 [Example 339, 1-(3-methoxyphenyl)-3-(1-(3-methoxyphenyl)-3-methyl-1H-pyrazol-5-yl)urea] | inhibition at 2 µM: 9%
4 | – | COc1cccc(-n2nc(C)cc2NC(=O)Nc2cccc(Cl)c2Cl)c1 [Example 340, 1-(2,3-dichlorophenyl)-3-(1-(3-methoxyphenyl)-3-methyl-1H-pyrazol-5-yl)urea] | inhibition at 10 µM: 31%
5 | 1000 nM | COc1cccc(-n2nc(C(F)(F)F)cc2NC(=O)Nc2cccc3ccccc23)c1 [Example 342, 1-(3-(trifluoromethyl)-1-(3-methoxyphenyl)-1H-pyrazol-5-yl)-3-(naphthalen-1-yl)urea] | –
6 | 180 nM | COc1cccc(-n2nc(C(C)(C)C)cc2NC(=O)Nc2ccccc2F)c1 [Example 344, 1-[3-t-butyl-1-(3-methoxy-phenyl)-1H-pyrazol-5-yl]-3-(2-fluorophenyl)urea] | –
7 | 270 nM | COc1cccc(-n2nc(C(C)(C)C)cc2NC(=O)Nc2cccc(F)c2F)c1 [Example 345, 1-[3-t-butyl-1-(3-methoxy-phenyl)-1H-pyrazol-5-yl]-3-(2,3-difluorophenyl)urea] | –
8 | – | COc1ccc(-n2nc(C(C)(C)C)cc2NC(=O)Nc2ccccc2F)cc1 [Example 346, 1-[3-t-butyl-1-(4-methoxyphenyl)-1H-pyrazol-5-yl]-3-(2-fluorophenyl)urea] | inhibition at 0.1 µM: 19%; inhibition at 1 µM: 63%
9 | – | COc1ccc(-n2nc(C(C)(C)C)cc2NC(=O)Nc2cccc(C(F)(F)F)c2)cc1 [Example 347, 1-[3-t-butyl-1-(4-methoxyphenyl)-1H-pyrazol-5-yl]-3-(3-trifluoromethylphenyl)urea] | inhibition at 0.1 µM: 8%; inhibition at 1 µM: 31%
10 | – | COc1ccc(-n2nc(C(C)(C)C)cc2NC(=O)Nc2cccc(OC)c2)cc1 [Example 348, 1-[3-t-butyl-1-(4-methoxyphenyl)-1H-pyrazol-5-yl]-3-(3-methoxy-phenyl)urea] | inhibition at 0.1 µM: 17%; inhibition at 1 µM: 47%
11 | – | COc1ccc(-n2nc(C(C)(C)C)cc2NC(=O)Nc2cccc(Cl)c2)cc1 [Example 350, 1-[3-t-butyl-1-(4-methoxyphenyl)-1H-pyrazol-5-yl]-3-(3-chlorophenyl)urea] | inhibition at 0.1 µM: 39%; inhibition at 1 µM: 64%
12 | 43 nM | CC(C)(C)c1cc(NC(=O)Nc2ccccc2F)n(-c2cccc(CC(N)=O)c2)n1 [Example 352, 1-{1-[3-(2-amino-2-oxoethyl)phenyl]-3-t-butyl-1H-pyrazol-5-yl}-3-(2-fluorophenyl)urea] | –
13 | 59 nM | CC(C)(C)c1cc(NC(=O)Nc2cccc(Br)c2)n(-c2cccc(C#N)c2)n1 [Example 356, 1-(3-t-butyl-1-(3-cyanophenyl)-1H-pyrazol-5-yl)-3-(3-bromophenyl)urea] | –
14 | 130 nM | CC(C)(C)c1cc(NC(=O)Nc2ccc3c(c2)OCO3)n(-c2cccc(C#N)c2)n1 [Example 357, 1-(benzo[d][1,3]dioxol-5-yl)-3-(3-t-butyl-1-(3-cyanophenyl)-1H-pyrazol-5-yl)urea] | –
15 | 390 nM | COc1cccc(NC(=O)Nc2cc(C(C)(C)C)nn2-c2cccc(C#N)c2)c1 [Example 360] | –
16 | 870 nM | CC(C)(C)c1cc(NC(=O)Nc2cccc(C(F)(F)F)c2)n(-c2cccc(C#N)c2)n1 [Example 361] | –

Row | IC50 | SMILES | further results
17 | 10 nM | CCOC(=O)CCc1cccc(-n2nc(C(C)(C)C)cc2NC(=O)Nc2cccc(Cl)c2Cl)c1 [Example 364, 3-(3-{3-t-butyl-5-[3-(2,3-dichlorophenyl)ureido]-1H-pyrazol-1-yl}phenyl)propionic acid ethyl ester] | –
18 | 7 nM | CC(C)(C)c1cc(NC(=O)Nc2cccc(Cl)c2Cl)n(-c2cccc(CCC(=O)O)c2)n1 [Example 365, 3-(3-{3-t-Butyl-5-[3-(2,3-dichloro-phenyl)ureido]-1H-pyrazol-1-yl}-phenyl)propionic acid] | –
19 | – | CCOC(=O)CCc1cccc(-n2nc(C(C)(C)C)cc2NC(=O)Nc2cccc3cccnc23)c1 [Example 366, 3-(3-{3-t-butyl-5-[3-(quinolin-8-yl)ureido]-1H-pyrazol-1-yl}phenyl)-propionic acid ethyl ester] | inhibition at 10 µM: 53%
20 | – | CC(C)(C)c1cc(NC(=O)Nc2cccc3cccnc23)n(-c2cccc(CCC(=O)O)c2)n1 [Example 367, 3-(3-{3-t-butyl-5-[3-(quinolin-8-yl)ureido]-1H-pyrazol-1-yl}phenyl)-propionic acid] | inhibition at 10 µM: 85%
21 | 1460 nM | CN(C)CCc1cccc(-n2nc(C(C)(C)C)cc2NC(=O)Nc2ccc(Cl)cc2)c1 [Example 372, 1-{3-t-butyl-1-[3-(2-(dimethylamino)ethyl]phenyl}-1H-pyrazol-5-yl)-3-(4-chlorophenyl)urea] | –
22 | 480 nM | CC(C)(C)c1cc(NC(=O)Nc2cccc(Br)c2)n(-c2cccc(CCN)c2)n1 [Example 376, 1-{1-[3-(2-aminoethyl)phenyl]-3-t-butyl-1H-pyrazol-5-yl}-3-(3-bromophenyl)urea] | –
23 | 2000 nM | CC(C)(C)c1cc(NC(=O)Nc2cccc(C(F)(F)F)c2)n(-c2cccc(CCN)c2)n1 [Example 380, 1-{1-[3-(2-aminoethyl)phenyl]-3-t-butyl-1H-pyrazol-5-yl}-3-[3-(trifluoromethyl)phenyl]urea] | –
24 | 880 nM | COc1cccc(NC(=O)Nc2cc(C(C)(C)C)nn2-c2cccc(CCN)c2)c1 [Example 382, 1-{1-[3-(2-aminoethyl)phenyl]-3-t-butyl-1H-pyrazol-5-yl}-3-(3-methoxyphenyl)urea] | –
25 | – | CC(C)(C)c1cc(NC(=O)Nc2cccc(Br)c2)n(-c2cccc(CN)c2)n1 [Example 384, 1-{1-[3-(aminomethyl)phenyl]-3-t-butyl-1H-pyrazol-5-yl}-3-(3-bromophenyl)urea] | inhibition at 1 µM: 72%; inhibition at 10 µM: 96%
26 | 30 nM | CC(C)(C)c1cc(NC(=O)Nc2cccc(Cl)c2)n(-c2cccc(C#N)c2)n1 [Example 385, 1-(3-t-butyl-1-(3-cyanophenyl)-1H-pyrazol-5-yl)-3-(3-chlorophenyl)urea] | –
27 | 4450 nM | CC(C)(C)c1cc(NC(=O)Nc2cccc(C(F)(F)F)c2)n(-c2cccc(CN)c2)n1 [Example 387, 1-{1-[3-(aminomethyl)phenyl]-3-t-butyl-1H-pyrazol-5-yl}-3-(3-(trifluoro-methyl)phenyl)urea] | –
28 | 1650 nM | COc1cccc(NC(=O)Nc2cc(C(C)(C)C)nn2-c2cccc(CN)c2)c1 [Example 388, 1-{1-[3-(aminomethyl)phenyl]-3-t-butyl-1H-pyrazol-5-yl}-3-(3-methoxy-phenyl)urea] | –
29 | – | CC(C)(C)c1cc(NC(=O)Nc2ccc(Cl)cc2)n(-c2cccc(CN)c2)n1 [Example 390, 1-{1-[3-(aminomethyl)phenyl]-3-t-butyl-1H-pyrazol-5-yl}-3-(4-chloro-phenyl)urea] | inhibition at 0.1 µM: 24%; inhibition at 1 µM: 63%
30 | 910 nM | CC(C)(C)c1cc(NC(=O)Nc2ccc3c(c2)OCO3)n(-c2cccc(CN)c2)n1 [Example 391, 1-{1-[3-(aminomethyl)phenyl]-3-t-butyl-1H-pyrazol-5-yl}-3-(benzo-[d][1,3]dioxol-5-yl)urea] | –
31 | – | CC(C)(C)c1cc(NC(=O)Nc2cccc(Cl)c2Cl)n(-c2cccc(C(N)=O)c2)n1 [Example 392, 1-[3-t-butyl-1-(3-carbamoylphenyl)-1H-pyrazol-5-yl]-3-(2,3-dichlorophenyl)urea] | inhibition at 0.1 µM: 75%; inhibition at 1 µM: 86%

Row | SMILES | IC50 | further results
32 | CC(C)(C)c1cc(NC(=O)Nc2cccc(F)c2F)n(-c2cccc(C#N)c2)n1 [Example 355, 1-[3-t-butyl-1-(3-cyan-phenyl)-1H-pyrazol-5-yl]-3-(2,3-difluorophenyl)urea] | 42 nM | –
33 | CC(C)(C)c1cc(NC(=O)Nc2ccc(Cl)cc2)n(-c2cccc(C#N)c2)n1 [Example 358, 1-(3-t-butyl-1-(3-cyanophenyl)-1H-pyrazol-5-yl)-3-(4-chlorophenyl)urea] | 100 nM | –
34 | CC(C)(C)c1cc(NC(=O)Nc2cccc(Cl)c2Cl)n(-c2cccc(C#N)c2)n1 [Example 359] | 13 nM | –
35 | CC(C)(C)c1cc(NC(=O)Nc2ccccc2F)n(-c2cccc(CCC(=O)O)c2)n1 [Example 363, 3-(3-{3-t-butyl-5-[3-(2-fluorophenyl)ureido]-11H-pyrazol-1-yl}-phenyl)propionic acid] | 190 nM | –
36 | CC(C)(C)c1cc(NC(=O)Nc2cccc(Cl)c2Cl)n(-c2cccc(CCN)c2)n1 [Example 374, 1-{1-[3-(2-aminoethyl)phenyl]-3-t-butyl-1H-pyrazol-5-yl}-3-(2,3-dichlorophenyl)urea] | 37 nM | –
37 | CC(C)(C)c1cc(NC(=O)Nc2cccc(Cl)c2)n(-c2cccc(CCN)c2)n1 [Example 378, 1-{1-[3-(2-aminoethyl)phenyl]-3-t-butyl-1H-pyrazol-5-yl}-3-(3-chlorophenyl)urea] | 400 nM | –
38 | CN(C)CCc1cccc(-n2nc(C(C)(C)C)cc2NC(=O)Nc2cccc(Cl)c2Cl)c1 [Example 383, 1-(3-t-butyl-1-{3-[2-(dimethylamino)ethyl]phenyl}-1H-pyrazol-5-yl)-3-(2,3-di-chlorophenyl)urea] | 100 nM | –
39 | CC(C)(C)c1cc(NC(=O)Nc2cccc(Cl)c2)n(-c2cccc(CN)c2)n1 [Example 386, 1-{1-[3-(aminomethyl)phenyl]-3-t-butyl-1H-pyrazol-5-yl}-3-(3-chloro-phenyl)urea] | 114 nM | –
